PubChem BioAssay AID256 (DTP/NCI, 2004)
“And” between values parts separate entries of the source, which are not always exact repeats. Equal values may be shown once. Inconclusive results and toxic doses are left out. Rule for the calls: active = survival T/C of 150% or more; inactive = T/C below 125% in these data.

Tested on: CD2F1 mice, L1210 leukemia ip, survival T/C
Assay: NCI In Vivo Anticancer Drug Screen. Data for tumor model L1210 Leukemia (intraperitoneal) in CD2F1 (CDF1) mice
Conditions: higher = longer survival
Procedure, shortened: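 In this screen, transplantable tumors were grown in mice given either the compound or its vehicle. Results were expressed as the treated measurement relative to the control measurement.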

[1] = endpoint: mean survival time, dose: 50.0 mg/kg/injection, schedule: Q01DX009 (ip), vehicle: saline
[2] = endpoint: mean survival time, dose: 100.0 mg/kg/injection, schedule: Q01DX009 (ip), vehicle: saline
[3] = endpoint: mean survival time, dose: 200.0 mg/kg/injection, schedule: Q01DX009 (ip), vehicle: saline
[4] = endpoint: mean survival time, dose: 100.0 mg/kg/injection, schedule: Q01DX001 (ip), vehicle: saline with Tween-80
[5] = endpoint: mean survival time, dose: 200.0 mg/kg/injection, schedule: Q01DX001 (ip), vehicle: saline with Tween-80
[6] = endpoint: mean survival time, dose: 400.0 mg/kg/injection, schedule: Q01DX001 (ip), vehicle: saline with Tween-80
[7] = endpoint: mean survival time, dose: 100.0 mg/kg/injection, schedule: Q01DX009 (ip), vehicle: saline with Tween-80
[8] = endpoint: mean survival time, dose: 200.0 mg/kg/injection, schedule: Q01DX009 (ip), vehicle: saline with Tween-80
[9] = endpoint: mean survival time, dose: 100.0 mg/kg/injection, schedule: Q04DX003 (ip), vehicle: saline with Tween-80
[10] = endpoint: mean survival time, dose: 200.0 mg/kg/injection, schedule: Q04DX003 (ip), vehicle: saline with Tween-80
[11] = endpoint: mean survival time, dose: 400.0 mg/kg/injection, schedule: Q01DX009 (ip), vehicle: saline with Tween-80
[12] = endpoint: mean survival time, dose: 400.0 mg/kg/injection, schedule: Q04DX003 (ip), vehicle: saline with Tween-80
[13] = endpoint: mean survival time, dose: 50.0 mg/kg/injection, schedule: Q01DX009 (ip), vehicle: saline with Tween-80
[14] = endpoint: mean survival time, dose: 50.0 mg/kg/injection, schedule: Q01DX001 (ip), vehicle: saline with Tween-80
[15] = endpoint: mean survival time, dose: 0.39 mg/kg/injection, schedule: Q01DX009 (ip), vehicle: saline
[16] = endpoint: mean survival time, dose: 0.78 mg/kg/injection, schedule: Q01DX009 (ip), vehicle: saline
[17] = endpoint: mean survival time, dose: 100.0 mg/kg/injection, schedule: Q04DX002 (ip), vehicle: saline with Tween-80
[18] = endpoint: mean survival time, dose: 200.0 mg/kg/injection, schedule: Q04DX002 (ip), vehicle: saline with Tween-80

Measured: T/C

CN1C(=S)[N+](C)(C)N=C1[O-]
inactive: [1] 107 % of control | [2] 108 % of control | endpoint: mean survival time, dose: 100.0 mg/kg/injection, schedule: Q04DX003 (ip), vehicle: saline 100 % of control | [3] 113 % of control | endpoint: mean survival time, dose: 200.0 mg/kg/injection, schedule: Q04DX003 (ip), vehicle: saline 105 % of control | endpoint: mean survival time, dose: 400.0 mg/kg/injection, schedule: Q04DX003 (ip), vehicle: saline 101 % of control

NC(N)=Nc1cccc(OCCCOc2ccccc2)c1
inactive: endpoint: mean survival time, dose: 18.75 mg/kg/injection, schedule: Q01DX001 (ip), vehicle: saline with Tween-80 102 % of control | endpoint: mean survival time, dose: 37.5 mg/kg/injection, schedule: Q01DX001 (ip), vehicle: saline with Tween-80 98 % of control | endpoint: mean survival time, dose: 75.0 mg/kg/injection, schedule: Q01DX001 (ip), vehicle: saline with Tween-80 97 % of control

CC(=O)C(C(C)=O)C(c1cccnc1)C(C(C)=O)C(C)=O
inactive: [4] 104 % of control | [5] 107 % of control | [6] 98 % of control

N#Cc1nc2c(n(O)c1=N)CCC/C2=N\O
inactive: endpoint: mean survival time, dose: 100.0 mg/kg/injection, schedule: Q04DX003 (ip), vehicle: Klucel (hydroxypropylcellulose) (HPC) 98 % of control | endpoint: mean survival time, dose: 200.0 mg/kg/injection, schedule: Q04DX003 (ip), vehicle: Klucel (hydroxypropylcellulose) (HPC) 98 % of control | endpoint: mean survival time, dose: 400.0 mg/kg/injection, schedule: Q04DX003 (ip), vehicle: Klucel (hydroxypropylcellulose) (HPC) 91 % of control

O=C1c2ccccc2C(=O)N1CC(O)CN1C(=O)c2ccccc2C1=O
inactive: endpoint: mean survival time, dose: 50.0 mg/kg/injection, schedule: Q01DX001 (ip), vehicle: other 98 % of control | endpoint: mean survival time, dose: 100.0 mg/kg/injection, schedule: Q01DX001 (ip), vehicle: other 100 % of control | endpoint: mean survival time, dose: 200.0 mg/kg/injection, schedule: Q01DX001 (ip), vehicle: other 93 % of control | endpoint: mean survival time, dose: 400.0 mg/kg/injection, schedule: Q01DX001 (ip), vehicle: other 94 % of control

NC(=O)N/N=C1\CC2C=CCC12 (stereo unspecified)
inactive: [7] 95 % of control | [8] 98 % of control

O=[N+]([O-])c1ccc(C2N(Cc3ccc(Cl)cc3)CCN2Cc2ccc(Cl)cc2)cc1
inactive: [4] 92 % of control | [7] 95 % of control | [9] 98 % of control | [5] 96 % of control | [8] 88 % of control | [10] 98 % of control | [6] 93 % of control | [11] 91 % of control | [12] 90 % of control

CCOC(=O)C(C(C)=O)C(=O)CCc1ccccc1 (stereo unspecified)
inactive: [9] 99 % of control | [10] 100 % of control | [12] 103 % of control

CC(=O)Nc1ccc2c(c1)CCC2=O
inactive: [4] 91 % of control | [5] 95 % of control | [6] 98 % of control

NC1CCCCC1CC1CCCCC1 (stereo unspecified)
inactive: endpoint: mean survival time, dose: 25.0 mg/kg/injection, schedule: Q01DX009 (ip), vehicle: saline with Tween-80 106 % of control | endpoint: mean survival time, dose: 25.0 mg/kg/injection, schedule: Q04DX003 (ip), vehicle: saline with Tween-80 97 % of control | [13] 103 % of control | endpoint: mean survival time, dose: 50.0 mg/kg/injection, schedule: Q04DX003 (ip), vehicle: saline with Tween-80 97 % of control | [7] 95 % of control | [9] 98 % of control

COc1ccccc1-n1c(O)c(N=Nc2ccccc2)c(=O)n(-c2ccccc2OC)c1=S
inactive: [4] 105 % of control | [5] 102 % of control

O=[N+]([O-])C1CC=CCC1C(Cl)(Cl)Cl (stereo unspecified)
inactive: endpoint: mean survival time, dose: 5.0 mg/kg/injection, schedule: Q01DX009 (ip), vehicle: saline with Tween-80 97 % of control | endpoint: mean survival time, dose: 10.0 mg/kg/injection, schedule: Q01DX009 (ip), vehicle: saline with Tween-80 103 % of control

CCOC(=O)/C=C(/Nc1ccc(S(=O)(=O)F)cc1)c1ccccc1
inactive: endpoint: mean survival time, dose: 100.0 mg/kg/injection, schedule: Q01DX009 (ip), vehicle: Klucel (hydroxypropylcellulose) (HPC) 100 % of control | endpoint: mean survival time, dose: 200.0 mg/kg/injection, schedule: Q01DX009 (ip), vehicle: Klucel (hydroxypropylcellulose) (HPC) 100 % of control | endpoint: mean survival time, dose: 400.0 mg/kg/injection, schedule: Q01DX009 (ip), vehicle: Klucel (hydroxypropylcellulose) (HPC) 97 % of control

Cc1nc(C(Cl)(Cl)Cl)[nH]c(=O)c1SCCO
inactive: endpoint: median survival time, dose: 25.0 mg/kg/injection, schedule: Q01DX009 (ip), vehicle: distilled water + alcohol 97 % of control and 100 % of control and 102 % of control | endpoint: median survival time, dose: 25.0 mg/kg/injection, schedule: Q01DX009 (sc), vehicle: distilled water + Tween-80 + alcohol 101 % of control | endpoint: median survival time, dose: 50.0 mg/kg/injection, schedule: Q01DX009 (sc), vehicle: distilled water + Tween-80 + alcohol 101 % of control | endpoint: median survival time, dose: 100.0 mg/kg/injection, schedule: Q01DX009 (sc), vehicle: distilled water + Tween-80 + alcohol 101 % of control | endpoint: median survival time, dose: 200.0 mg/kg/injection, schedule: Q01DX009 (sc), vehicle: distilled water + Tween-80 + alcohol 103 % of control

CN(C)C1C(CO)C(CO)C1(C)C (stereo unspecified)
inactive: [14] 98 % of control | [4] 97 % of control | [5] 98 % of control | [6] 97 % of control

NC(=S)/C(N)=N/Nc1ccc(Cl)cc1
inactive: [15] 101 % of control | [16] 104 % of control | endpoint: mean survival time, dose: 1.56 mg/kg/injection, schedule: Q01DX009 (ip), vehicle: saline 108 % of control | endpoint: mean survival time, dose: 3.12 mg/kg/injection, schedule: Q01DX009 (ip), vehicle: saline 107 % of control | endpoint: mean survival time, dose: 6.25 mg/kg/injection, schedule: Q01DX009 (ip), vehicle: saline 96 % of control and 110 % of control | endpoint: mean survival time, dose: 12.5 mg/kg/injection, schedule: Q01DX009 (ip), vehicle: saline 113 % of control and 93 % of control | endpoint: mean survival time, dose: 25.0 mg/kg/injection, schedule: Q01DX009 (ip), vehicle: saline 100 % of control | [1] 100 % of control

CCOC(=O)C(C)C1(O)CCCCC1 (stereo unspecified)
inactive: [9] 101 % of control | [10] 101 % of control | [12] 92 % of control

CCCCCCCCCCCCCCCCCCCOc1ccc(OCCCCCCCCCC)cc1
inactive: [4] 95 % of control | [5] 86 % of control | [6] 86 % of control

N#Cc1ncn(C2OC(CO)C(O)C2O)c1N (stereo unspecified)
inactive: [17] 102 % of control | [18] 105 % of control | endpoint: mean survival time, dose: 400.0 mg/kg/injection, schedule: Q04DX002 (ip), vehicle: saline with Tween-80 109 % of control

CCCCCCCCCCCCCCC[N+]1(CC)CCCCC1
inactive: endpoint: mean survival time, dose: 0.09 mg/kg/injection, schedule: Q01DX009 (ip), vehicle: saline 102 % of control | endpoint: mean survival time, dose: 0.19 mg/kg/injection, schedule: Q01DX009 (ip), vehicle: saline 102 % of control | [15] 115 % of control | [16] 103 % of control

CC(=O)c1c(C(C)C)cc(C(C)C)cc1C(C)C
inactive: [7] 98 % of control | [8] 101 % of control | [11] 101 % of control

CCCCCCCCCCCCCCCCCc1nnc(-c2ccccc2O)o1
inactive: endpoint: mean survival time, dose: 25.0 mg/kg/injection, schedule: Q04DX002 (ip), vehicle: saline with Tween-80 100 % of control | endpoint: mean survival time, dose: 50.0 mg/kg/injection, schedule: Q04DX002 (ip), vehicle: saline with Tween-80 103 % of control | [17] 108 % of control | [18] 112 % of control

CCCOC(=O)c1cncn1C(C)c1ccccc1 (stereo unspecified)
inactive: endpoint: mean survival time, dose: 100.0 mg/kg/injection, schedule: Q01DX001 (ip), vehicle: saline 102 % of control

CC1(C)C(=O)CCC2(C)C(OC(=O)c3ccc(C(=O)O)cc3)CCCC12 (stereo unspecified)
inactive: [9] 96 % of control | [10] 93 % of control | [12] 93 % of control

CCOC(=O)CC(=O)c1[nH]c(C)c(C(=O)OCC)c1C
inactive: [9] 101 % of control | [10] 103 % of control | [12] 101 % of control

O=C(/C=C/C(=N\Nc1ccccc1)c1ccccc1)c1ccccc1
inactive: [4] 96 % of control | [5] 94 % of control | [6] 97 % of control

CC(C)c1ccc(C(O)C2CC2)cc1 (stereo unspecified)
inactive: [1] 100 % of control | [2] 100 % of control | [3] 96 % of control

O=S1(=O)CC(Br)C(Br)C1 (stereo unspecified)
inactive: [13] 88 % of control | [7] 100 % of control | [9] 106 % of control | [8] 110 % of control | [10] 107 % of control | [12] 100 % of control

CC(C)C(C)CCC(C)C1CCC2C3CC=C4CC(O)CCC4(C)C3CCC12C (stereo unspecified)
inactive: endpoint: mean survival time, dose: 25.0 mg/kg/injection, schedule: Q01DX001 (ip), vehicle: saline with Tween-80 91 % of control | [14] 94 % of control | [4] 97 % of control

COc1ccc(OC)c(C2C(C#N)C(C=O)NC(C=O)C2C#N)c1 (stereo unspecified)
inactive: endpoint: mean survival time, dose: 100.0 mg/kg/injection, schedule: Q01DX009 (ip), vehicle: other 100 % of control | endpoint: mean survival time, dose: 200.0 mg/kg/injection, schedule: Q01DX009 (ip), vehicle: other 104 % of control | endpoint: mean survival time, dose: 400.0 mg/kg/injection, schedule: Q01DX009 (ip), vehicle: other 100 % of control
